Assay results published in US5554789A, “Arylpropionic derivative, a process for the preparation and the use thereof as an analgesic agent” (Laboratorios Menarini S.A., priority 1992, dated 1996).
Counter-ions that a name gives are not always drawn. Like-named read-outs stand apart in the source and are kept apart here.

Experiments:
Swiss male mice = test: Phenylbenzoquinone writhing test (analgesic activity); type: in vivo
[1] = cited from earlier work
pH in aqueous solution = type: physicochemical
[2] = Toxicity (general statement); conditions: compared with the other derivatives
[3] = Gastrolesive effect in animals
[4] = Plasmatic levels of the (+)-(S) enantiomer in humans; conditions: vs (+)-(S)-ketoprofen free acid or double dose of racemic ketoprofen free acid
[5] = Analgesic action (general statements); type: in vivo
Hygroscopicity = type: physicochemical
[6] = Dissolution rate in water; type: physicochemical; conditions: compared with compound (I)
[7] = background; cited from earlier work

For CC(C(=O)O)c1cccc(C(=O)c2ccccc2)c1 (racemic) [(R,S)-ketoprofen tromethamine salt], the “% Inhibition (analgesic effect, phenylbenzoquinone test)” value (Swiss male mice; intravenously, 0.30 mg/kg (amount of ketoprofen injected)) was 62.9 ± 11.7%.
For CC(C(=O)O)c1cccc(C(=O)c2ccccc2)c1 (racemic) [(R,S)-ketoprofen, 2-(3-Benzoylphenyl)propionic acid], the “% Inhibition (analgesic effect, phenylbenzoquinone test)” value (Swiss male mice; orally, 30 minutes prior to phenylbenzoquinone, 0.30 mg/kg) is given as 50.0 ± 7.8% and the “analgesic and antipyretic action” value ([1]; background) is given as “potent analgesic and antipyretic action”.
In the case of C[C@H](C(=O)O)c1cccc(C(=O)c2ccccc2)c1 [(+)-(S)-ketoprofen, (+)-(S)-2-(3-benzoylphenyl)propionic acid], the analgesic action ([1]; vs the racemic, administered doses being equal) is given as “faster acting and more potent analgesic than the racemic”.
For C[C@H](C(=O)O)c1cccc(C(=O)c2ccccc2)c1 [I, (+)-(S)-2-(3-benzoylphenyl)propionic acid tromethamine salt], the “pH in aqueous solution” value (pH in aqueous solution) was “physiologically compatible pH in aqueous solution”, the “analgesic effectiveness compared with racemic ketoprofen” value (Swiss male mice; phenylbenzoquinone writhing test, intravenous and oral) was “same analgesic effectiveness as a racemic ketoprofen double dose” and the toxicity [2] was “lower toxicity”. For the same compound, the gastrolesive effect ([3]; animals, vs (+)-(S)-, (-)-(R)- and racemic ketoprofen) was “much less gastrolesive”, the gastrolesive effect ([3]; vs corresponding free acid or racemic ketoprofen) was “markedly less gastrolesive than the corresponding free acid or the racemic ketoprofen” and the “plasmatic levels of the active (+)-(S) enantiomer” value [4] was “higher plasmatic levels of the active (+)-(S) enantiomer in a far shorter time”. For the same compound, the “analgesic action (onset, response, duration)” value ([5]; vs racemic ketoprofen) was “faster onset of analgesic action, an enhanced analgesic response and a longer duration than racemic ketoprofen”, the “analgesic action and response” value ([5]; vs racemic ketoprofen tromethamine salt) was “faster action and enhanced analgesic response than the racemic ketoprofen tromethamine salt” and the hygroscopicity (Hygroscopicity) was “very low hygroscopicity”.
With C[C@H](C(=O)O)c1cccc(C(=O)c2ccccc2)c1 [L-lysine salt] the dissolution rate [6] was “significantly lower”.
For CC(C(=O)O)c1cccc(C(=O)c2ccccc2)c1 (stereo not drawn) [sodium salt], the hygroscopicity [7] is given as “high hygroscopicity”.
